Assay results as given in PubChem BioAssay (NCI).
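GI50 is the concentration that inhibits growth by half. TGI is the concentration that stops growth completely.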

Key:
Experiment in all cases: inhibition of tumour cell growth, NCI panel, 384-well format
[1] = test system: HT29 colon
[2] = test system: LOX IMVI melanoma
[3] = test system: SK-MEL-28 melanoma
[4] = test system: MDA-MB-435 melanoma
[5] = test system: NCI-H522 lung
[6] = test system: RPMI-8226 leukemia
[7] = test system: COLO 205 colon
[8] = test system: HOP-62 NSCLC
[9] = test system: KM12 colon
[10] = test system: MDA-MB-231 breast
[11] = test system: CAKI-1 renal
[12] = test system: A549 NSCLC
[13] = test system: HOP-92 NSCLC
[14] = test system: OVCAR-4 ovarian
[15] = test system: OVCAR-5 ovarian
[16] = test system: T-47D breast
[17] = test system: M14 melanoma
[18] = test system: OVCAR-3 ovarian
[19] = test system: RXF 393 renal
[20] = test system: 786-0 renal
[21] = test system: BT-549 breast
[22] = test system: SK-MEL-5 melanoma
[23] = test system: TK-10 renal
[24] = test system: DU-145 prostate
[25] = test system: SF-539 CNS
[26] = test system: K-562 leukemia
[27] = test system: MCF7 breast
[28] = test system: SF-295 CNS
[29] = test system: A498 renal
[30] = test system: UACC-257 melanoma
[31] = test system: SN12C renal
[32] = test system: OVCAR-8 ovarian
[33] = test system: HL-60(TB) leukemia
[34] = test system: HCC-2998 colon
[35] = test system: UO-31 renal
[36] = test system: NCI-H23 lung
[37] = test system: U251 glioblastoma
[38] = test system: NCI-H460 NSCLC
[39] = test system: NCI-H322M lung
[40] = test system: IGROV1 ovarian
[41] = test system: UACC-62 melanoma
[42] = test system: ACHN renal
[43] = test system: HCT-116 colon
[44] = test system: MALME-3M melanoma
[45] = test system: MOLT-4 leukemia
[46] = test system: SF-268 CNS
[47] = test system: NCI-H226 lung
[48] = test system: NCI/ADR-RES ovarian
[49] = test system: HCT-15 colon
[50] = test system: SK-OV-3 ovarian
[51] = test system: SK-MEL-2 melanoma
[52] = test system: SNB-19 CNS
[53] = test system: SW-620 colon
[54] = test system: SR leukemia
[55] = test system: PC-3 prostate
[56] = test system: MDA-MB-468 breast
[57] = test system: CCRF-CEM leukemia

## COc1cc2c(cc1OC(C)C)[C@H](c1ccc(Cl)cc1)N(c1ccc(N(C)CC3CCC(N4CCN(C)C(=O)C4)CC3)cc1)C(=O)C2 (stereo partly drawn)
[1]
  GI50: 1.79 µM
  TGI: 3.22 µM
[2]
  GI50: 0.946 µM
  TGI: 2.13 µM
[3]
  GI50: 1.79 µM
  TGI: 3.19 µM
[4]
  GI50: 2.01 µM
  TGI: 3.46 µM
[5]
  GI50: 1.86 µM
  TGI: 3.33 µM
[6]
  GI50: 1.53 µM
  TGI: 2.88 µM
[7]
  GI50: 1.86 µM
  TGI: 3.29 µM
[8]
  GI50: 2.07 µM
  TGI: 3.52 µM
[9]
  GI50: 1.9 µM
  TGI: 3.35 µM
[10]
  GI50: 1.8 µM
  TGI: 3.2 µM
[11]
  GI50: 0.146 µM
  TGI: 1.18 µM
[12]
  GI50: 0.387 µM
  TGI: 1.55 µM
[13]
  GI50: 1.59 µM
  TGI: 2.96 µM
[14]
  GI50: 1.76 µM
  TGI: 3.18 µM
[15]
  GI50: 1.85 µM
  TGI: 3.31 µM
[16]
  GI50: 1.76 µM
  TGI: 3.23 µM
[17]
  GI50: 0.943 µM
  TGI: 2.16 µM
[18]
  GI50: 1.69 µM
  TGI: 3.08 µM
[19]
  GI50: 1.69 µM
  TGI: 3.07 µM
[20]
  GI50: 1.72 µM
  TGI: 3.12 µM
[21]
  GI50: 1.58 µM
  TGI: 2.94 µM
[22]
  GI50: 1.3 µM
  TGI: 2.58 µM
[23]
  GI50: 1.82 µM
  TGI: 3.31 µM
[24]
  GI50: 1.92 µM
  TGI: 3.51 µM
[25]
  GI50: 1.74 µM
  TGI: 3.14 µM
[26]
  GI50: 1.76 µM
  TGI: 3.17 µM
[27]
  GI50: 0.378 µM
  TGI: 1.57 µM
[28]
  GI50: 1.62 µM
  TGI: 2.99 µM
[29]
  GI50: 0.24 µM
  TGI: 1.32 µM
[30]
  GI50: 1.35 µM
  TGI: 2.64 µM
[31]
  GI50: 1.81 µM
  TGI: 3.22 µM
[32]
  GI50: 1.82 µM
  TGI: 3.25 µM
[33]
  GI50: 1.96 µM
  TGI: 3.38 µM
[34]
  GI50: 1.73 µM
  TGI: 3.12 µM
[35]
  GI50: 0.288 µM
  TGI: 1.31 µM
[36]
  GI50: 1.93 µM
  TGI: 4.37 µM
[37]
  GI50: 1.75 µM
  TGI: 3.16 µM
[38]
  GI50: 0.316 µM
  TGI: 1.42 µM
[39]
  GI50: 1.71 µM
  TGI: 3.27 µM
[40]
  GI50: 1.37 µM
  TGI: 2.7 µM
[41]
  GI50: 0.0924 µM
  TGI: 1.58 µM
[42]
  GI50: 0.243 µM
  TGI: 1.28 µM
[43]
  GI50: 0.349 µM
  TGI: 1.49 µM
[44]
  GI50: 1.18 µM
  TGI: 2.43 µM
[45]
  GI50: 0.0378 µM
  TGI: 0.138 µM
[46]
  GI50: 1.9 µM
  TGI: 3.34 µM
[47]
  GI50: 0.134 µM
  TGI: 0.374 µM
[48]
  GI50: 1.77 µM
  TGI: 3.22 µM
[49]
  GI50: 1.82 µM
  TGI: 3.26 µM
[50]
  GI50: 1.58 µM
  TGI: 2.94 µM
[51]
  GI50: 1.81 µM
  TGI: 3.21 µM
[52]
  GI50: 1.94 µM
  TGI: 3.49 µM
[53]
  GI50: 1.91 µM
  TGI: 3.36 µM
[54]
  GI50: 0.0291 µM
  TGI: 0.101 µM
[55]
  GI50: 1.79 µM
  TGI: 3.19 µM
[56]
  GI50: 2.03 µM
  TGI: 3.47 µM
[57]
  GI50: 1.94 µM
  TGI: 3.36 µM

## Cc1c(C)n(CCCN2CCN(C)CC2)c2ccc(Oc3cccc(C(=O)N4CCN(CCc5ccc(F)cc5)CC4)c3)cc12
[1]
  GI50: 1.45 µM
  TGI: 2.8 µM
[2]
  GI50: 2.09 µM
  TGI: 3.54 µM
[3]
  GI50: 1.68 µM
  TGI: 3.06 µM
[4]
  GI50: 1.72 µM
  TGI: 3.11 µM
[5]
  GI50: 1.68 µM
  TGI: 3.05 µM
[6]
  GI50: 1.3 µM
  TGI: 2.56 µM
[7]
  GI50: 1.68 µM
  TGI: 3.07 µM
[8]
  GI50: 1.63 µM
  TGI: 3 µM
[9]
  GI50: 1.72 µM
  TGI: 3.12 µM
[10]
  GI50: 1.91 µM
  TGI: 3.32 µM
[11]
  GI50: 1.51 µM
  TGI: 2.85 µM
[12]
  GI50: 1.6 µM
  TGI: 2.98 µM
[13]
  GI50: 1.43 µM
  TGI: 2.74 µM
[14]
  GI50: 1.75 µM
  TGI: 3.13 µM
[15]
  GI50: 1.66 µM
  TGI: 3.03 µM
[16]
  GI50: 1.49 µM
  TGI: 2.82 µM
[17]
  GI50: 1.6 µM
  TGI: 2.96 µM
[18]
  GI50: 1.61 µM
  TGI: 2.97 µM
[19]
  GI50: 1.42 µM
  TGI: 2.73 µM
[20]
  GI50: 1.52 µM
  TGI: 2.87 µM
[21]
  GI50: 1.32 µM
  TGI: 2.6 µM
[22]
  GI50: 1.28 µM
  TGI: 2.55 µM
[23]
  GI50: 1.59 µM
  TGI: 2.94 µM
[24]
  GI50: 1.73 µM
  TGI: 3.13 µM
[25]
  GI50: 1.61 µM
  TGI: 2.98 µM
[26]
  GI50: 1.43 µM
  TGI: 2.76 µM
[27]
  GI50: 1.72 µM
  TGI: 3.11 µM
[28]
  GI50: 1.8 µM
  TGI: 3.2 µM
[29]
  GI50: 1.52 µM
  TGI: 2.86 µM
[30]
  GI50: 0.889 µM
  TGI: 2.1 µM
[31]
  GI50: 1.63 µM
  TGI: 2.99 µM
[32]
  GI50: 1.62 µM
  TGI: 3 µM
[33]
  GI50: 2.03 µM
  TGI: 3.46 µM
[34]
  GI50: 1.43 µM
  TGI: 2.74 µM
[35]
  GI50: 1.61 µM
  TGI: 2.97 µM
[36]
  GI50: 1.5 µM
  TGI: 2.83 µM
[37]
  GI50: 1.7 µM
  TGI: 3.1 µM
[38]
  GI50: 1.85 µM
  TGI: 3.32 µM
[39]
  GI50: 1.64 µM
  TGI: 3.01 µM
[40]
  GI50: 1.58 µM
  TGI: 2.94 µM
[41]
  GI50: 1.78 µM
  TGI: 3.17 µM
[42]
  GI50: 1.61 µM
  TGI: 2.98 µM
[43]
  GI50: 1.47 µM
  TGI: 2.8 µM
[44]
  GI50: 1.41 µM
  TGI: 2.71 µM
[45]
  GI50: 1.81 µM
  TGI: 3.2 µM
[46]
  GI50: 1.78 µM
  TGI: 3.18 µM
[47]
  GI50: 1.59 µM
  TGI: 2.94 µM
[48]
  GI50: 1.57 µM
  TGI: 2.92 µM
[49]
  GI50: 1.43 µM
  TGI: 2.75 µM
[50]
  GI50: 1.52 µM
  TGI: 2.86 µM
[51]
  GI50: 1.76 µM
  TGI: 3.14 µM
[52]
  GI50: 1.71 µM
  TGI: 3.1 µM
[53]
  GI50: 1.77 µM
  TGI: 3.19 µM
[54]
  GI50: 1.46 µM
  TGI: 2.79 µM
[55]
  GI50: 1.65 µM
  TGI: 3.02 µM
[56]
  GI50: 1.39 µM
  TGI: 2.69 µM
[57]
  GI50: 1.63 µM
  TGI: 2.99 µM
